Laboratory results reported in ChEMBL document CHEMBL4622931, “Potent dual EGFR/Her4 tyrosine kinase inhibitors containing novel (1,2-dithiolan-4-yl)acetamides” (Bioorg Med Chem Lett, 2020).
Calls of active or inactive are those of the source. The calls are words filed in the database; no cut-off is given here.

Tests used:
[1] = target: Epidermal growth factor receptor (Homo sapiens, UniProt P00533, L858R/T790M); assay: Inhibition of EGFR L858R/T790M mutant (unknown origin) in presence of radiolabelled gammaATP by radioisotope filter binding assay
[2] = target: T1, Epidermal growth factor receptor (Homo sapiens, UniProt P00533); assay: Inhibition of wild type EGFR (unknown origin) in presence of radiolabelled gammaATP by radioisotope filter binding assay
[3] = target: T2, Epidermal growth factor receptor (Homo sapiens, UniProt P00533, L858R); assay: Inhibition of EGFR L858R mutant (unknown origin) in presence of radiolabelled gammaATP by radioisotope filter binding assay
[4] = target: Epidermal growth factor receptor (Homo sapiens, UniProt P00533, EX19DEL); assay: Inhibition of EGFR ex19del mutant (unknown origin) in presence of radiolabelled gammaATP by radioisotope filter binding assay
[5] = target: T3, Receptor tyrosine-protein kinase erbB-4 (Homo sapiens, UniProt Q15303); assay: Inhibition of HER4 (unknown origin) in presence of radiolabelled gammaATP by radioisotope filter binding assay
NCI-H226 = assay: Cytotoxicity against human NCI-H226 cells assessed as growth inhibition incubated for 48 hrs by SRB assay; format: functional; conditions: NCI-H226, 48 h
MOLT-4 [6] = assay: Cytotoxicity against human MOLT4 cells assessed as growth inhibition incubated for 48 hrs by SRB assay; format: functional; conditions: MOLT-4, 48 h
M14 = assay: Cytotoxicity against human M14 cells assessed as growth inhibition incubated for 48 hrs by SRB assay; format: functional; conditions: M14, 48 h
[7] = Toxicity in NMRI mouse xenografted with human NCI-H460 cells assessed as weight loss at 10 mg/kg, ip administered for 14 days and observed on day 14; format: organism-based; conditions: in vivo, 336 h
SR = assay: Cytotoxicity against human SR cells assessed as growth inhibition incubated for 48 hrs by SRB assay; format: functional
DU-145 = assay: Cytotoxicity against human DU145 cells assessed as growth inhibition incubated for 48 hrs by SRB assay; format: functional; conditions: DU-145, 48 h
[8] = target: T2, Epidermal growth factor receptor; assay: Inhibition of recombinant human partial length EGFR L858R mutant (669 to 1011 residues) expressed in bacterial expression system by competitive binding assay
MOLT-4 [9] = assay: Antitumor activity against human MOLT4 cells loaded in hollow fibers implanted intraperitoneally in NMRI mouse assessed as reduction in cell viability at 10 mg/kg, ip administered for 14 days by celltiter glo assay; format: functional, organism-based
CCRF-CEM = assay: Cytotoxicity against human CCRF-CEM cells assessed as growth inhibition incubated for 48 hrs by SRB assay; format: functional
MCF7 = assay: Cytotoxicity against human MCF7 cells assessed as growth inhibition incubated for 48 hrs by SRB assay; format: functional; conditions: MCF7, 48 h
HCT-116 = assay: Cytotoxicity against human HCT116 cells assessed as growth inhibition incubated for 48 hrs by SRB assay; format: functional; conditions: HCT-116, 48 h
[10] = target: T2, Epidermal growth factor receptor; assay: Inhibition of recombinant human N-terminal GST-tagged EGFR L858R mutant (669 to 1210 residues) expressed in baculovirus expression system by competitive binding assay
Hs-578T = assay: Cytotoxicity against human Hs578T cells assessed as growth inhibition incubated for 48 hrs by SRB assay; format: functional
SF-268 = assay: Cytotoxicity against human SF268 cells assessed as growth inhibition incubated for 48 hrs by SRB assay; format: functional; conditions: SF-268, 48 h
[11] = Toxicity in NMRI mouse xenografted with human MOLT4 cells assessed as toxic signs at 10 mg/kg, ip administered for 14 days and observed on day 14; format: organism-based, MOLT-4; conditions: in vivo, 336 h
K562 = assay: Cytotoxicity against human K562 cells assessed as growth inhibition incubated for 48 hrs by SRB assay; format: functional; conditions: K562, 48 h
[12] = Toxicity in NMRI mouse xenografted with human HCT116 cells assessed as toxic signs at 10 mg/kg, ip administered for 14 days and observed on day 14; format: organism-based, HCT-116; conditions: in vivo, 336 h
[13] = target: T3, Receptor tyrosine-protein kinase erbB-4; assay: Inhibition of recombinant human wild type partial length HER4 (690 to 994 residues) expressed in bacterial expression system by competitive binding assay
[14] = target: T4, Receptor tyrosine-protein kinase erbB-2 (Homo sapiens, UniProt P04626); assay: Inhibition of HER2 (unknown origin) in presence of radiolabelled gammaATP by radioisotope filter binding assay
[15] = Toxicity in NMRI mouse xenografted with human NCI-H460 cells assessed as toxic signs at 10 mg/kg, ip administered for 14 days and observed on day 14; format: organism-based; conditions: in vivo, 336 h
[16] = target: T1, Epidermal growth factor receptor; assay: Inhibition of recombinant human N-terminal GST-tagged EGFR (669 to 1210 residues) expressed in baculovirus expression system by competitive binding assay
PC-3 = assay: Cytotoxicity against human PC3 cells assessed as growth inhibition incubated for 48 hrs by SRB assay; format: functional; conditions: PC-3, 48 h
MDA-MB-231 = assay: Cytotoxicity against human MDA-MB-231 cells assessed as growth inhibition incubated for 48 hrs by SRB assay; format: functional; conditions: MDA-MB-231, 48 h
[17] = target: T4, Receptor tyrosine-protein kinase erbB-2
Description: Inhibition of recombinant human N-terminal His-tagged HER2 (676 to 1255 residues) expressed in baculovirus expression system by competitive binding assay

NCI-H460 [18] = assay: Antitumor activity against human NCI-H460 cells loaded in hollow fibers implanted intraperitoneally in NMRI mouse assessed as reduction in cell viability at 10 mg/kg, ip administered for 14 days by celltiter glo assay; format: functional, organism-based
[19] = Toxicity in NMRI mouse xenografted with human HCT116 cells assessed as weight loss at 10 mg/kg, ip administered for 14 days and observed on day 14; format: organism-based, HCT-116; conditions: in vivo, 336 h
[20] = target: Receptor tyrosine-protein kinase erbB-3 (Homo sapiens, UniProt P21860); assay: Inhibition of recombinant human wild type partial length HER3 (684 to 987 residues) expressed in mammalian expression system by competitive binding assay
[21] = Toxicity in NMRI mouse xenografted with human MOLT4 cells assessed as weight loss at 10 mg/kg, ip administered for 14 days and observed on day 14; format: organism-based, MOLT-4; conditions: in vivo, 336 h
SK-MEL-28 = assay: Cytotoxicity against human SK-MEL-28 cells assessed as growth inhibition incubated for 48 hrs by SRB assay; format: functional; conditions: SK-MEL-28, 48 h
NCI-H460 [22] = assay: Cytotoxicity against human NCI-H460 cells assessed as growth inhibition incubated for 48 hrs by SRB assay; format: functional; conditions: NCI-H460, 48 h
MDA-MB-468 = assay: Cytotoxicity against human MDA-MB-468 cells assessed as growth inhibition incubated for 48 hrs by SRB assay; format: functional; conditions: MDA-MB-468, 48 h
[23] = target: T3, Receptor tyrosine-protein kinase erbB-4
Description: Inhibition of recombinant human N-terminal GST-tagged HER4 (676 to 1308 residues) expressed in baculovirus expression system by competitive binding assay

T2 sequence (P00533 25-1210 L858R limits assumed): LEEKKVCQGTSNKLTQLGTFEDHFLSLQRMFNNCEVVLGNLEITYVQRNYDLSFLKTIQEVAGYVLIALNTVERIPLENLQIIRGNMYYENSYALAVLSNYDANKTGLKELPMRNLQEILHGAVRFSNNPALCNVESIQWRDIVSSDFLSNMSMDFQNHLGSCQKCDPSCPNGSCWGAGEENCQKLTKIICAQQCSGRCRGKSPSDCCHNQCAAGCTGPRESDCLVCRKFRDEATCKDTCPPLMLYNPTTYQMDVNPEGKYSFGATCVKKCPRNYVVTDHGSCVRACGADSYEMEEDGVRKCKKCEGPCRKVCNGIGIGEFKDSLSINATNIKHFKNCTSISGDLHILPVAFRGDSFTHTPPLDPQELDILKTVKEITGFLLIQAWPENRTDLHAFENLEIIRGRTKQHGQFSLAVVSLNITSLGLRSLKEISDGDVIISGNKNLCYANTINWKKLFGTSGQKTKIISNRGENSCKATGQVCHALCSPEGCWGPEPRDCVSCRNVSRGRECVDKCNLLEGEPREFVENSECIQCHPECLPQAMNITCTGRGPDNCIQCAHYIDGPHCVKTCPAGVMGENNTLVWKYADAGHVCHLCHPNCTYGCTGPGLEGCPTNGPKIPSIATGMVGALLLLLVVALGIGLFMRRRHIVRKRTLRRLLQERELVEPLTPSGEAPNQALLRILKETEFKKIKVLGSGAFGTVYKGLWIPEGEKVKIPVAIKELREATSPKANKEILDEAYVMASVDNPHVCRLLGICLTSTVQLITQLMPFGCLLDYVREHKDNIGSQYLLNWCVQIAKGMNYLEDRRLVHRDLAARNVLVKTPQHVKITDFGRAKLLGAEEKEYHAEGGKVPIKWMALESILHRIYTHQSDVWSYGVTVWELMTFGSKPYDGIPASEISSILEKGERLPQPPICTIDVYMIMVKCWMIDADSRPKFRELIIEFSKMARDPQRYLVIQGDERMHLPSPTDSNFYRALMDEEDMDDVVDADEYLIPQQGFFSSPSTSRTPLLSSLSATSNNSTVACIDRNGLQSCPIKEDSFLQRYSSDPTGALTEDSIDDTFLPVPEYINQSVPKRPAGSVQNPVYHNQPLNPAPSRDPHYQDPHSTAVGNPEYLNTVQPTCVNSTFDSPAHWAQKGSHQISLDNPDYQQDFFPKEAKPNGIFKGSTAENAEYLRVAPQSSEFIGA
T1 sequence (P00533 whole entry): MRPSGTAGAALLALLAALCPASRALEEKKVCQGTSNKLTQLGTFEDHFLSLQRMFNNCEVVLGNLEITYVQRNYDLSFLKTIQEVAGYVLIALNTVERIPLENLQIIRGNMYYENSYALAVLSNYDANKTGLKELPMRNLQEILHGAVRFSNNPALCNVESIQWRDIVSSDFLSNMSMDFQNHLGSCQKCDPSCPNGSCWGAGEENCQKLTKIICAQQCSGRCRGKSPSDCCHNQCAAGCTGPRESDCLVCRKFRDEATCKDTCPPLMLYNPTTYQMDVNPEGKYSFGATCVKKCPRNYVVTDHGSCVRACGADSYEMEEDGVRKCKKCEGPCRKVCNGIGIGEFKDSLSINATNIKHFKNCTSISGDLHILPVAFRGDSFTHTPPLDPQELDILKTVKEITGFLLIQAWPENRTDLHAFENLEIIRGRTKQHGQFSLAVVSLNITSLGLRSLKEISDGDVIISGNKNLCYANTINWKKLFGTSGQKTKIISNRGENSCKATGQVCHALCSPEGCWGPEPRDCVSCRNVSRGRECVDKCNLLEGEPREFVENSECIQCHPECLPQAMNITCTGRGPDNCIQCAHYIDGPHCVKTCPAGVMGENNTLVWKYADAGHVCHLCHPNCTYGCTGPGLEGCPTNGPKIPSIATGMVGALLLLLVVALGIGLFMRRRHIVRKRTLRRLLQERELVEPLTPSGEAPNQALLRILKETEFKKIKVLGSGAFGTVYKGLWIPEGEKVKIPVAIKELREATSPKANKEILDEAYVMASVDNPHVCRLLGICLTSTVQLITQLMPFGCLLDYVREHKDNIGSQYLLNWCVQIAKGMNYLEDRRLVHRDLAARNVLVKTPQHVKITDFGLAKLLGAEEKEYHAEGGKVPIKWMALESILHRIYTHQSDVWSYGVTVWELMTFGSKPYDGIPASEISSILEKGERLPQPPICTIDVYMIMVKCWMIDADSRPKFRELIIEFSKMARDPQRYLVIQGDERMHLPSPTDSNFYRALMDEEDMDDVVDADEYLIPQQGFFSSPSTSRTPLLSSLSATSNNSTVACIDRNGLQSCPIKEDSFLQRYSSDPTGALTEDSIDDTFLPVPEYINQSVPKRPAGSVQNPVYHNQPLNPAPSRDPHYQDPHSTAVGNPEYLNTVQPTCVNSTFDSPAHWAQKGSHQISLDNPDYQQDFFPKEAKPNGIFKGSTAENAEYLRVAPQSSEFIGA
Epidermal growth factor receptor (Homo sapiens, UniProt P00533, EX19DEL), sequence (P00533 whole entry, looked up, stated change not applied): as the sequence (P00533 whole entry) above
T4 sequence (P04626 whole entry): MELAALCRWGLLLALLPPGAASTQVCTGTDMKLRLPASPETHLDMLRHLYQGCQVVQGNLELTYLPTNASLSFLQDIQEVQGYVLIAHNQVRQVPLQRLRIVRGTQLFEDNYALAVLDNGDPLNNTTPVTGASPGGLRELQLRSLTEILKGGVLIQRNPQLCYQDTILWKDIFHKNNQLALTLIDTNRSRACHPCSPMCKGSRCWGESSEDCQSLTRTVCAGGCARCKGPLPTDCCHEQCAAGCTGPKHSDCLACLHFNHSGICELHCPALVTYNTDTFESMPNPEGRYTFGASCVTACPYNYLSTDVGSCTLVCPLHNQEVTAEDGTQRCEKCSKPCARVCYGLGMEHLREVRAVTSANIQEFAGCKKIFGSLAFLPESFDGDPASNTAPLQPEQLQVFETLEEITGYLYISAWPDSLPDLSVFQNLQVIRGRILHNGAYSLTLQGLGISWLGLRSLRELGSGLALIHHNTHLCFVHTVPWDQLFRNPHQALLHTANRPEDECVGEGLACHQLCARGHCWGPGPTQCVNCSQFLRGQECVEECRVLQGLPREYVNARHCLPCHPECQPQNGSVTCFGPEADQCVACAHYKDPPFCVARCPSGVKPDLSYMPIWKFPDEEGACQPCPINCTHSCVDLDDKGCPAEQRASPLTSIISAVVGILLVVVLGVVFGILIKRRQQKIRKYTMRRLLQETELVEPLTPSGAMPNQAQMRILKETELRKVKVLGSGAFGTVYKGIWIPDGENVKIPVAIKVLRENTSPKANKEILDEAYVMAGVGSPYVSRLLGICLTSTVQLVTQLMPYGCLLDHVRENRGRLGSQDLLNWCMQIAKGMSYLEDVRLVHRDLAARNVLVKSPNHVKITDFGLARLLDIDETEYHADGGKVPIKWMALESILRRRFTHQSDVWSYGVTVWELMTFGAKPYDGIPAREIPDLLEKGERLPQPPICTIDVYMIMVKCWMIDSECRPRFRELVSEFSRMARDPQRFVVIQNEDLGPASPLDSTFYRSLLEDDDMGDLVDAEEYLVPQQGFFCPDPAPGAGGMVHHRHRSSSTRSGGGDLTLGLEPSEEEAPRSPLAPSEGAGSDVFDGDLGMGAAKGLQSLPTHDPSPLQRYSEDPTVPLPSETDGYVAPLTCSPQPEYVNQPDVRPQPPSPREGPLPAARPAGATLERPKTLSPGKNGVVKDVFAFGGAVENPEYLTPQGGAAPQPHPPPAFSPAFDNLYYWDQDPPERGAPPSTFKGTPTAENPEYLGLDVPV

In the case of `N#Cc1cnc2cc(OC[C@@H](O)CO)c(NC(=O)C3CSSC3)cc2c1Nc1ccc(OCc2cccc(F)c2)c(Cl)c1`, the IC50 [1] is reported as > 10000 nM, the IC50 [2] is reported as 1.5 nM and the IC50 [3] is reported as 51 nM. The IC50 [4] was 204 nM and the IC50 [5] was 0.45 nM.
With `N#Cc1cnc2ccc(NC(=O)C3CSSC3)cc2c1Nc1ccc(OCc2cccc(F)c2)c(Cl)c1` the IC50 [5] was 284 nM.
For `N#Cc1cnc2cc(OC[C@@H](O)CO)c(NC(=O)CC3CSSC3)cc2c1Nc1ccc(OCc2cccc(F)c2)c(Cl)c1`, the GI50 (NCI-H226) was 198 nM, the TGI (NCI-H226) was 883 nM and the IC50 [1] was > 10000 nM. It also gave an IC50 [2] of 2.4 nM, a GI50 (MOLT-4 [6]) of 74 nM and a TGI (MOLT-4 [6]) of 175 nM. The GI50 (M14) was 83 nM, the TGI (M14) was 251 nM and the Activity [7] was “Non-Toxic”. It also gave a GI50 (SR) of 66 nM, a TGI (SR) of 246 nM and a GI50 (DU-145) of 134 nM. The TGI (DU-145) was 424 nM, the Kd [8] was 9.2 nM and the inhibition (MOLT-4 [9]) was “Active”. The GI50 (CCRF-CEM) was 42 nM, the TGI (CCRF-CEM) was 146 nM and the GI50 (MCF7) was 86 nM. It also gave a TGI (MCF7) of 182 nM, an IC50 [3] of 419 nM and a GI50 (HCT-116) of 88 nM. The TGI (HCT-116) was 204 nM, the IC50 [10] was 18.1 nM and the GI50 (Hs-578T) was 105 nM. For the same compound, the TGI (Hs-578T) was 282 nM, the GI50 (SF-268) was 83 nM and the TGI (SF-268) was 778 nM. For the same compound, the Activity [11] was “Non-Toxic”, the IC50 [4] was 1990 nM and the GI50 (K562) was 94 nM. The TGI (K562) was 208 nM, the Activity [12] was “Non-Toxic” and the Kd [13] was 6 nM. The IC50 [14] was 121 nM, the Activity [15] was “Non-Toxic” and the IC50 [16] was 12.3 nM. For the same compound, the GI50 (PC-3) was 89 nM, the TGI (PC-3) was 204 nM and the GI50 (MDA-MB-231) was 103 nM. The TGI (MDA-MB-231) was 237 nM, the IC50 [17] was 112 nM and the inhibition (NCI-H460 [18]) was “Active”. For the same compound, the IC50 [5] was 0.03 nM, the Activity [19] was “Non-Toxic” and the Kd [20] was 380 nM. The Activity [21] was “Non-Toxic”, the GI50 (SK-MEL-28) was 63 nM and the TGI (SK-MEL-28) was 136 nM. It also gave a GI50 (NCI-H460 [22]) of 103 nM, a TGI (NCI-H460 [22]) of 263 nM and a GI50 (MDA-MB-468) of 70 nM. The TGI (MDA-MB-468) was 155 nM and the IC50 [23] was 12.2 nM.
`C=CC(=O)Nc1cc2c(Nc3ccc(F)c(Cl)c3)ccnc2cc1OCCC1CC12CCN(C)CC2` (configuration not stated) showed an IC50 [5] of 1.2 nM.
In the case of `N#Cc1cnc2cc(OC[C@H](O)CO)c(NC(=O)CC3CSSC3)cc2c1Nc1ccc(OCc2cccc(F)c2)c(Cl)c1`, the GI50 (NCI-H226) is reported as 690 nM, the TGI (NCI-H226) is reported as 1830 nM and the IC50 [2] is reported as 2 nM. The GI50 (MOLT-4 [6]) was 93 nM, the TGI (MOLT-4 [6]) was 209 nM and the GI50 (M14) was 141 nM. For the same compound, the TGI (M14) was 482 nM, the GI50 (SR) was 132 nM and the TGI (SR) was 608 nM. For the same compound, the GI50 (DU-145) was 637 nM, the TGI (DU-145) was 1360 nM and the GI50 (CCRF-CEM) was 112 nM. For the same compound, the TGI (CCRF-CEM) was 283 nM, the GI50 (MCF7) was 91 nM and the TGI (MCF7) was 193 nM. For the same compound, the IC50 [3] was 387 nM, the GI50 (HCT-116) was 98 nM and the TGI (HCT-116) was 209 nM. The GI50 (Hs-578T) was 512 nM, the TGI (Hs-578T) was 1740 nM and the GI50 (SF-268) was 404 nM. For the same compound, the TGI (SF-268) was 1320 nM, the IC50 [4] was 1280 nM and the GI50 (K562) was 148 nM. The TGI (K562) was 454 nM, the IC50 [14] was 104 nM and the GI50 (PC-3) was 174 nM. For the same compound, the TGI (PC-3) was 455 nM, the GI50 (MDA-MB-231) was 208 nM and the TGI (MDA-MB-231) was 722 nM. For the same compound, the IC50 [5] was 0.19 nM, the GI50 (SK-MEL-28) was 129 nM and the TGI (SK-MEL-28) was 350 nM. The GI50 (NCI-H460 [22]) was 128 nM, the TGI (NCI-H460 [22]) was 312 nM and the GI50 (MDA-MB-468) was 120 nM. It also gave a TGI (MDA-MB-468) of 385 nM.
